Experimental findings from US12157882B2, “Lactobacillus plantarum strain ATG-K2, ATG-K6 or ATG-K8, and composition for preventing or treating vaginitis comprising same” (ATOGEN CO., LTD, priority 2018, dated 2024) are described below.

A short description of the test: Ability to produce hydrogen peroxide (tetramethylbenzidine MRS agar). Conditions: anaerobic, 37° C., about 48-72 hr, color change after exposure to air. How it is done:
For the ability to produce hydrogen peroxide as the function of each of the lactic-acid bacteria, an agar medium was prepared by adding 0.25 mg/ml of tetramethylbenzidine (Sigma-Aldrich, Germany) and […] to MRS (McGroarty et al., 1992). Here, the additives were added at about 50° C. after autoclaving of the MRS agar. Each of the lactic-acid bacteria was inoculated into the completely hardened test agar medium, placed in an anaerobic jar, and cultured at 37° C. for about 48-72 hr. After culture, the lactic-acid bacteria were taken out of the anaerobic jar and exposed to air, and the colony and the surrounding color change were observed.
For “Lactobacillus plantarum ATG-K6 [Lb. plantarum ATG-K6]”, the “ability to produce hydrogen peroxide” value is on record as “produced hydrogen peroxide”.

Take “Lactobacillus plantarum ATG-K8 [Lb. plantarum ATG-K8]”: the “ability to produce hydrogen peroxide” value is reported as “produced hydrogen peroxide”.

In the case of “Lactobacillus plantarum ATG-K2 [Lb. plantarum ATG-K2]”, the “ability to produce hydrogen peroxide” value was “produced hydrogen peroxide”.
